Experimental data reported in patent publication US20230416258A1, “BENZ[…], AND PREPARATION METHOD THEREFOR AND USE THEREOF” (CHINA PHARMACEUTICAL UNIVERSITY, priority 2020, published 2023).
Like-named read-outs stand apart in the source and are kept apart here.

Experiments:
hCMEC/D3 cells = assay: Rate of drug passing through in vitro blood-brain barrier (Transwell); format: in vitro ADME; conditions: hCMEC/D3 monolayer, compound 0.1 mg/mL
Method: A Transwell device (pore size: 5.0 μm) was placed in a 24-well cell culture well; then hCMEC/D3 cells at 1×10^5 cells/mL were transferred to the upper microwells of Transwell at 150 μL/well, and cell culture medium was added to the lower microwells. After the bottom was covered by a single layer of the cells, the medium in the wells was replaced with EBM-2 complete medium containing 1% FBS, and the cells were cultured in a CO2 incubator for 10 days until a fully dense single layer of the cells was formed. When a fully dense single layer of the cells was formed, the compound at 0.1 mg/mL was added to the lower medium, and after 5 min, the concentration of the compound in the upper medium was measured to calculate the permeability:
Pcompound%=Cupper compound/Clower compound×100%

SD rats [1] = assay: Test for drug-induced disappearance of righting reflex in rats; format: in vivo; conditions: single rapid bolus via tail vein
From the text: In anesthetic drug experiments, latency generally refers to the time from the start of administration to the loss of consciousness of the subject. The shorter latency is preferred, indicating a rapid onset of action after administration. The duration of anesthesia generally refers to the duration of time from the loss of consciousness to the restoration of consciousness of the subject. The duration of the drug will vary from animal model to animal species. Too long anesthesia may produce adverse cardiovascular and respiratory responses, such as adverse neurological effects to the subject, including sleepiness and dizziness; meanwhile, too short duration of anesthesia may affect the anesthesia effect, causing problems such as increase of anesthesia dosage during the operation.
SD rats (male, 200-280 g) were randomly grouped and subjected to a single administration by rapid bolus via the tail vein. The latency and duration of righting reflex in the rats were recorded.

[2] = tested on: GABA-activated Cl− current (GABAA receptor) in HEK 293T cells; assay: Effect of drugs on GABA-activated current in cells by cell patch clamp; format: cell-based; conditions: for Enhancement percentage Emax for 2 μM GABA current (within 3-30 μM): corresponding concentration 20 μM
Method: Test compounds were dissolved at various concentrations in an extracellular buffer (140 mM NaCl, 4.7 mM KCl, 10 mM HEPES, 2 mM CaCl2), 10 mM glucose, 1 mM MgCl2, pH 7.4). HEK 293T cells were seeded on glass coverslips and cultured in DMEM media at 37° C. with 5% CO2 for 24 h. GABA Cl^− current was subjected to whole cell recording using an HEKA EPC 10USB patch clamp amplifier. 2 μM GABA was used for exciting Cl^− current, with the membrane potential clamped at −60 mV. The cells were treated with the test compound and 2 μM GABA simultaneously, and the induction effect on and Emax of Cl^− current in the same cell were recorded.
Maximum enhancement percentage Emax for 2 μM GABA current and corresponding concentration (μM): 100% for normal humans. The greater the percentage, the lower the corresponding concentration, and the greater the depth of anesthesia.

SD rats [3] = assay: Induction of anesthesia in rats by continuous infusion of drug for 20 min; format: in vivo; conditions: initial dose 20 mg/kg bolus, maintenance dose 0.2 (mg/kg)/min for 20 min, after infusion completed
Method: SD rats (male, 200-280 g) were randomly grouped and subjected to administration of an initial dose by rapid bolus via the tail vein, followed by a continuous infusion with a maintenance dose for 20 min.
After the infusion was completed, the duration of the righting reflex and the time from wake-up to recovery in rats were recorded.

KM mice = assay: Test for drug-induced disappearance of righting reflex in mice; format: in vivo; conditions: single rapid bolus via tail vein
Method in brief: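 Latency to, and duration of, righting reflex loss were recorded after one fast tail-vein bolus. Animals: randomized female KM mice weighing 18–25 g.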

[4] = read-out: Positive enhancement EC50 (μM) for 2 μM GABA-induced current, −60 mV
[5] = 2 μM GABA, −60 mV, read-out: Positive enhancement EC50 (μM) for 2 μM GABA-induced current

`COC(=O)CC[C@@H]1N=C(c2ccccc2F)c2cc(Cl)ccc2-n2c(S)nnc21` [Compound 1, methyl (S)-3-(8-chloro-6-(2-fluorophenyl)-1-mercapto-4H-benzo[f][1,2,4]triazolo[4,3-a][1,4]diazepin-4-yl)propionate] was tested, and the “In vitro blood-brain barrier, compound permeability at 5 min” value (“In vitro blood-brain barrier” below) (hCMEC/D3 cells) was 72.2%, the Latency (SD rats [1]) was 0.25 min and the EC50 [2, 4] was 0.85 µM. For the same compound, the “Enhancement percentage Emax for 2 μM GABA current (within 3-30 μM)” value (shortened to “Enhancement percentage Emax”) ([2]; −60 mV) was 216% (20 μM), the Duration of anesthesia (SD rats [3]) was 2.82 min and the “Time from wake-up to recovery” value (SD rats [3]) was 11.2 min. It also gave a Duration (KM mice; 30 mg/kg) of 3.51 min and a Latency (KM mice; 30 mg/kg) of 0.26 min.
For `COC(=O)CC[C@@H]1N=C(c2ccccc2F)c2cc([N+](=O)[O-])ccc2-n2c(SC)nnc21` [Compound 10, methyl (S)-3-(8-nitro-6-(2-fluorophenyl)-1-(methylthio)-4H-benzo[f][1,2,4]triazolo[4,3-a][1,4]diazepin-4-yl)propionate], the “In vitro blood-brain barrier” value (hCMEC/D3 cells) was 58.7%, the Latency (SD rats [1]) was 0.32 min and the EC50 [2, 4] was 0.67 µM. For the same compound, the “Enhancement percentage Emax” value ([2]; −60 mV) was 202% (20 μM), the Duration of anesthesia (SD rats [3]) was 5.35 min and the “Time from wake-up to recovery” value (SD rats [3]) was 13.6 min. The Duration (KM mice; 30 mg/kg) was 3.15 min and the Latency (KM mice; 30 mg/kg) was 0.76 min.
With `CCSc1nnc2n1-c1ccc([N+](=O)[O-])cc1C(c1ccccc1F)=N[C@H]2CCC(=O)OC` [Compound 13, methyl (S)-3-(8-nitro-6-(2-fluorophenyl)-1-(ethylthio)-4H-benzo[f][1,2,4]triazolo[4,3-a][1,4]diazepin-4-yl)propionate] the “In vitro blood-brain barrier” value (hCMEC/D3 cells) was 81.6%, the Latency (SD rats [1]) was 0.58 min and the EC50 [2, 4] was 0.58 µM. The “Enhancement percentage Emax” value ([2]; −60 mV) was 246% (20 μM), the Duration of anesthesia (SD rats [3]) was 5.22 min and the “Time from wake-up to recovery” value (SD rats [3]) was 11.4 min. The Duration (KM mice; 30 mg/kg) was 2.87 min and the Latency (KM mice; 30 mg/kg) was 0.23 min.
With `COC(=O)CC[C@@H]1N=C(c2ccccc2Cl)c2cc(Cl)ccc2-n2c(SC)nnc21` [Compound 23, methyl (S)-3-(8-chloro-6-(2-chlorophenyl)-1-(methylthio)-4H-benzo[f][1,2,4]triazolo[4,3-a][1,4]diazepin-4-yl)propionate] the “In vitro blood-brain barrier” value (hCMEC/D3 cells) was 65.3%, the Latency (SD rats [1]) was 0.36 min and the EC50 [2, 4] was 0.52 µM. The “Enhancement percentage Emax” value ([2]; −60 mV) was 278% (20 μM), the Duration of anesthesia (SD rats [3]) was 7.22 min and the “Time from wake-up to recovery” value (SD rats [3]) was 13.2 min. For the same compound, the Duration (KM mice; 60 mg/kg) was 8.46 min, the Latency (KM mice; 60 mg/kg) was 0.25 min and the Duration (KM mice; 100 mg/kg) was 14.6 min. The Latency (KM mice; 100 mg/kg) was 0.16 min.
`COC(=O)CC[C@@H]1N=C(c2ccccc2Cl)c2cc(Br)ccc2-n2c(SC)nnc21` [Compound 24, methyl (S)-3-(8-bromo-6-(2-chlorophenyl)-1-(methylthio)-4H-benzo[f][1,2,4]triazolo[4,3-a][1,4]diazepin-4-yl)propionate] was tested, and the “In vitro blood-brain barrier” value (hCMEC/D3 cells) was 73.4%, the Latency (SD rats [1]) was 0.28 min and the EC50 [2, 4] was 0.48 µM. The “Enhancement percentage Emax” value ([2]; −60 mV) was 282% (20 μM), the Duration of anesthesia (SD rats [3]) was 15.6 min and the “Time from wake-up to recovery” value (SD rats [3]) was 22.3 min. For the same compound, the Duration (KM mice; 60 mg/kg) was 6.83 min and the Latency (KM mice; 60 mg/kg) was 0.24 min.
For `COC(=O)CC[C@@H]1N=C(c2ccccc2Cl)c2cc([N+](=O)[O-])ccc2-n2c(SC)nnc21` [Compound 25, methyl (S)-3-(8-nitro-6-(2-chlorophenyl)-1-(methylthio)-4H-benzo[f][1,2,4]triazolo[4,3-a][1,4]diazepin-4-yl)propionate], the “In vitro blood-brain barrier” value (hCMEC/D3 cells) was 81.5%, the Latency (SD rats [1]) was 0.45 min and the EC50 [2, 4] was 0.64 µM. The “Enhancement percentage Emax” value ([2]; −60 mV) was 242% (20 μM), the Duration of anesthesia (SD rats [3]) was 7.35 min and the “Time from wake-up to recovery” value (SD rats [3]) was 10.2 min. The Duration (KM mice; 60 mg/kg) was 5.89 min and the Latency (KM mice; 60 mg/kg) was 0.31 min.
For `CCSc1nnc2n1-c1ccc(Cl)cc1C(c1ccccc1Cl)=N[C@H]2CCC(=O)OC` [Compound 26, methyl (S)-3-(8-chloro-6-(2-chlorophenyl)-1-(ethylthio)-4H-benzo[f][1,2,4]triazolo[4,3-a][1,4]diazepin-4-yl)propionate], the “In vitro blood-brain barrier” value (hCMEC/D3 cells) was 52.8%, the Latency (SD rats [1]) was 0.36 min and the EC50 [2, 4] was 0.71 µM. The “Enhancement percentage Emax” value ([2]; −60 mV) was 249% (20 μM), the Duration of anesthesia (SD rats [3]) was 8.22 min and the “Time from wake-up to recovery” value (SD rats [3]) was 9.46 min. For the same compound, the Duration (KM mice; 30 mg/kg) was 3.57 min, the Latency (KM mice; 30 mg/kg) was 1.5 min and the Duration (KM mice; 60 mg/kg) was 8.06 min. It also gave a Latency (KM mice; 60 mg/kg) of 0.18 min.
`CCCSc1nnc2n1-c1ccc(Cl)cc1C(c1ccccc1Cl)=N[C@H]2CCC(=O)OC` [Compound 29, methyl (S)-3-(8-chloro-6-(2-chlorophenyl)-1-(propylthio)-4H-benzo[f][1,2,4]triazolo[4,3-a][1,4]diazepin-4-yl)propionate] was tested, and the “In vitro blood-brain barrier” value (hCMEC/D3 cells) was 77.6%, the Latency (SD rats [1]) was 0.86 min and the EC50 [2, 4] was 0.74 µM. The “Enhancement percentage Emax” value ([2]; −60 mV) was 251% (20 μM), the Duration of anesthesia (SD rats [3]) was 9.18 min and the “Time from wake-up to recovery” value (SD rats [3]) was 13.6 min. It also gave a Duration (KM mice; 30 mg/kg) of 9.25 min and a Latency (KM mice; 30 mg/kg) of 0.57 min.
`COC(=O)CC[C@@H]1N=C(c2ccccc2Cl)c2cc([N+](=O)[O-])ccc2-n2c(SCCO)nnc21` [Compound 34, methyl (S)-3-(8-nitro-6-(2-chlorophenyl)-1-((2-hydroxyethyl)thio)-4H-benzo[f][1,2,4]triazolo[4,3-a][1,4]diazepin-4-yl)propionate] was tested, and the “In vitro blood-brain barrier” value (hCMEC/D3 cells) was 85.6%, the Latency (SD rats [1]) was 0.22 min and the EC50 [2, 4] was 0.38 µM. The “Enhancement percentage Emax” value ([2]; −60 mV) was 302% (20 μM), the Duration of anesthesia (SD rats [3]) was 48.2 min and the “Time from wake-up to recovery” value (SD rats [3]) was 35.6 min. For the same compound, the Duration (KM mice; 30 mg/kg) was 21.9 min and the Latency (KM mice; 30 mg/kg) was 0.3 min.
In the case of `COC(=O)CC[C@@H]1N=C(c2ccccc2Cl)c2cc([N+](=O)[O-])ccc2-n2c(SCCN)nnc21` [Compound 37, methyl (S)-3-(8-nitro-6-(2-chlorophenyl)-1-((2-aminoethyl)thio)-4H-benzo[f][1,2,4]triazolo[4,3-a][1,4]diazepin-4-yl) propionate], the “In vitro blood-brain barrier” value (hCMEC/D3 cells) is reported as 84.6%, the Duration (SD rats [1]) is reported as 25.1 min and the Latency (SD rats [1]) is reported as 0.22 min. For the same compound, the EC50 [2, 5] was 0.53 µM, the “Enhancement percentage Emax” value ([2]; −60 mV) was 267% (20 μM) and the Duration of anesthesia (SD rats [3]) was 6.68 min. The “Time from wake-up to recovery” value (SD rats [3]) was 10.5 min, the Duration (KM mice; 30 mg/kg) was 7.63 min and the Latency (KM mice; 30 mg/kg) was 0.49 min. For the same compound, the Duration (KM mice; 60 mg/kg) was 7.68 min and the Latency (KM mice; 60 mg/kg) was 0.21 min.
For `COC(=O)CC[C@@H]1N=C(c2ccccc2F)c2cc(Cl)ccc2-n2c(SCCN3CCOCC3)nnc21` [Compound 51, methyl (S)-3-(8-chloro-6-(2-fluorophenyl)-1-((2-morpholinoethyl)thio)-4H-benzo[f][1,2,4]triazolo[4,3-a][1,4]diazepin-4-yl)propionate], the “In vitro blood-brain barrier” value (hCMEC/D3 cells) was 78.6%, the Latency (SD rats [1]) was 0.27 min and the EC50 [2, 4] was 0.41 µM. For the same compound, the “Enhancement percentage Emax” value ([2]; −60 mV) was 304% (20 μM), the Duration of anesthesia (SD rats [3]) was 8.36 min and the “Time from wake-up to recovery” value (SD rats [3]) was 22.6 min. It also gave a Duration (KM mice; 60 mg/kg) of 8.46 min, a Latency (KM mice; 60 mg/kg) of 0.25 min and a Duration (KM mice; 100 mg/kg) of 14.6 min. It also gave a Latency (KM mice; 100 mg/kg) of 0.16 min.
In the case of `COC(=O)CC[C@@H]1N=C(c2ccccc2Cl)c2cc(Cl)ccc2-n2c(SCCN3CCCC3)nnc21` [Compound 119, methyl (S)-3-(8-chloro-6-(2-chlorophenyl)-1-(2-((pyrrolidin-1-yl)ethyl)thio)-4H-benzo[f][1,2,4]triazolo[4,3-a][1,4]diazepin-4-yl)propionate], the “In vitro blood-brain barrier” value (hCMEC/D3 cells) is reported as 83.3%, the Duration (SD rats [1]) is reported as 13.27 min and the Latency (SD rats [1]) is reported as 0.43 min. For the same compound, the EC50 [2, 5] was 0.43 µM, the “Enhancement percentage Emax” value ([2]; −60 mV) was 278% (20 μM) and the Duration of anesthesia (SD rats [3]) was 12.83 min. The “Time from wake-up to recovery” value (SD rats [3]) was 32.7 min, the Duration (KM mice; 30 mg/kg) was 30.86 min and the Latency (KM mice; 30 mg/kg) was 0.46 min.
